# Data taken from paper PMC6751662, “Pharmacological and functional similarities of the human neuropeptide Y system in C. elegans challenges phylogenetic views on the FLP/NPR system” (Cell Communication and Signaling : CCS, 2019).
# What was measured:
# Format in all cases: cell-based
# [1] = molecular target: T1, NPFF1R (Homo sapiens, UniProt Q9GZQ6); test: IP accumulation assay, chimeric GαΔ6qi4myr, NPFF1R; settings: chimeric GαΔ6qi4myr co-transfected, transiently transfected HEK293 cells, mean of at least three independent experiments
# T1 construct: expressed in transfected cells; host or cells: HEK293, transient
# T1 sequence (Q9GZQ6 whole entry): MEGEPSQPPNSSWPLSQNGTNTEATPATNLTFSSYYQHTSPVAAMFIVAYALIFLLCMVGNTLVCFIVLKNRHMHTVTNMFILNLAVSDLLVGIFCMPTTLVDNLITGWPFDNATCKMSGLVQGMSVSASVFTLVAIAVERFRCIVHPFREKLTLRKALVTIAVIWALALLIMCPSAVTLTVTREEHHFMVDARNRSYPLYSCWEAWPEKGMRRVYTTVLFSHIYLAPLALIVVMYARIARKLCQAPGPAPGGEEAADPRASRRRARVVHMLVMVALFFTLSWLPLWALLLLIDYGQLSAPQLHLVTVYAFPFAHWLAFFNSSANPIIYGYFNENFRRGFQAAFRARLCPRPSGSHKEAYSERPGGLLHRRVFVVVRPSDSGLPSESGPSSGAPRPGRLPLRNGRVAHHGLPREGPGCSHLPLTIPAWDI
# Experimental: (§1) For measuring IP accumulation, HEK293 cells grown to 70–80% confluency in 6-well plates were transiently co-transfected using Metafectene Pro (2.5 μl/μg DNA; Biontex) with plasmids containing receptor and/or mock (empty pcDNA3.1) (for endogenous Gq-coupling) using 4 μg total DNA in a ratio of 3:1 following the manufacturer’s instructions. For testing Gα16- and GαΔ6qi4myr-coupling, plasmids encoding the corresponding Gα protein were co-transfected instead of mock. Gα16 is naturally promiscuous and stimulates the phospholipase C (PLC) pathway leading to IP production, while the exchange of the C-terminal four amino acids of Gαq for the corresponding residues of Gαi1 in the chimeric GαΔ6qi4myr confers the ability to couple to Gi/o protein-preferring receptors but still stimulate PLC, thus specifically redirecting downstream cellular signaling. 16 h post transfection, the cells were seeded into white 384-well plates at a density of 20,000 cells/well. Media was removed 24 h later and the cells were incubated with the indicated concentration of peptides for 1 h in HBSS + 20 mM LiCl. IP accumulation was measured with the HTRF-based IP-One Gq kit (Cisbio) on a microplate reader (Tecan Spark).
# (§2) For in vitro activation, data is presented as mean ± SEM of at least three independent experiments conducted in technical triplicate. […] For the C. elegans NPRs, we considered the strongest response elicited by any of the peptides downstream of a particular receptor as the receptor’s maximal signal. This may or may not be the biological maximum that can be reached by the ‘true’ endogenous agonist. For the human receptors, the response to the established endogenous agonist reflected the maximal signal.
# [2] = molecular target: T2, Y1R (Homo sapiens, UniProt P25929); test: IP accumulation assay, chimeric GαΔ6qi4myr, Y1R; settings: chimeric GαΔ6qi4myr co-transfected, transiently transfected HEK293 cells, mean of at least three independent experiments
# T2 construct: expressed in transfected cells; host or cells: HEK293, transient
# T2 sequence (P25929 1-384): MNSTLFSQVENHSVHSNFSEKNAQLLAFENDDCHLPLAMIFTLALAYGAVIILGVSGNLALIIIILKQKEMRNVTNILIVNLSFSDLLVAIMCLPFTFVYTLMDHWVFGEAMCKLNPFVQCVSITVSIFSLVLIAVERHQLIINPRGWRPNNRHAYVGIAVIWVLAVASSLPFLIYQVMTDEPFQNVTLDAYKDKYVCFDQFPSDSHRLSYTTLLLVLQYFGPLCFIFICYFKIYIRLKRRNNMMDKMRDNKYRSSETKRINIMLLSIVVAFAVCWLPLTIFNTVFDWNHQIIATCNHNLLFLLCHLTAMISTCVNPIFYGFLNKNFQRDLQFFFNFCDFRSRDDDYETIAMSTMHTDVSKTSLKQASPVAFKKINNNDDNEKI
# Experimental: as §1, §2
# [3] = molecular target: T3, QRFPR (Homo sapiens, UniProt Q96P65); test: IP accumulation assay, endogenous Gαq coupling, QRFPR; settings: transiently transfected HEK293 cells, mean of at least three independent experiments
# T3 construct: expressed in transfected cells; host or cells: HEK293, transient
# T3 sequence (Q96P65 1-431): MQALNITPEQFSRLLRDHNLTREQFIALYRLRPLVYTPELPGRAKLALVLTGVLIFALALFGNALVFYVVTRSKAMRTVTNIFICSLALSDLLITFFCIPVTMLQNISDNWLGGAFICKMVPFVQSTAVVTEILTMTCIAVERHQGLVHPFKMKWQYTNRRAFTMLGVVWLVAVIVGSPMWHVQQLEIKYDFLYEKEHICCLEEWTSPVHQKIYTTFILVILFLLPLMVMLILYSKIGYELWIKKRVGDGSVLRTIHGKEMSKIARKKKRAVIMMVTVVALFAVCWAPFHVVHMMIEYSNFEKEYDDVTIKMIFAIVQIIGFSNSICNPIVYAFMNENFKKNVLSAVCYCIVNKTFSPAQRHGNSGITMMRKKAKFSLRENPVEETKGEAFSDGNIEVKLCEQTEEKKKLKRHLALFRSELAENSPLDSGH
# Experimental: as §1, §2
# [4] = molecular target: T4, Y2R (Homo sapiens, UniProt P49146); test: IP accumulation assay, chimeric GαΔ6qi4myr, Y2R; settings: chimeric GαΔ6qi4myr co-transfected, transiently transfected HEK293 cells, mean of at least three independent experiments
# T4 construct: expressed in transfected cells; host or cells: HEK293, transient
# T4 sequence (P49146 1-381): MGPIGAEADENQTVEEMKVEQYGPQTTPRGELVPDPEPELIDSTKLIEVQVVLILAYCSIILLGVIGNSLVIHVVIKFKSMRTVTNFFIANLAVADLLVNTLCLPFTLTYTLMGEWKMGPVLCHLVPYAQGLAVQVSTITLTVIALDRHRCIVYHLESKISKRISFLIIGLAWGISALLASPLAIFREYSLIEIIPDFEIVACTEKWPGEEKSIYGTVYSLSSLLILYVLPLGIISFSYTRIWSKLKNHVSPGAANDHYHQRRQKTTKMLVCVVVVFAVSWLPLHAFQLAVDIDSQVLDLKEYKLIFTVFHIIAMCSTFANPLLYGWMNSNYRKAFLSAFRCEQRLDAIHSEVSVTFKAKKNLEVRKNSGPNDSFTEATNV
# Experimental: as §1, §2
# [5] = molecular target: T5, NPFF2R (Homo sapiens, UniProt Q9Y5X5); test: IP accumulation assay, chimeric GαΔ6qi4myr, NPFF2R; settings: chimeric GαΔ6qi4myr co-transfected, transiently transfected HEK293 cells, mean of at least three independent experiments
# T5 construct: expressed in transfected cells; host or cells: HEK293, transient
# T5 sequence (Q9Y5X5 103-522): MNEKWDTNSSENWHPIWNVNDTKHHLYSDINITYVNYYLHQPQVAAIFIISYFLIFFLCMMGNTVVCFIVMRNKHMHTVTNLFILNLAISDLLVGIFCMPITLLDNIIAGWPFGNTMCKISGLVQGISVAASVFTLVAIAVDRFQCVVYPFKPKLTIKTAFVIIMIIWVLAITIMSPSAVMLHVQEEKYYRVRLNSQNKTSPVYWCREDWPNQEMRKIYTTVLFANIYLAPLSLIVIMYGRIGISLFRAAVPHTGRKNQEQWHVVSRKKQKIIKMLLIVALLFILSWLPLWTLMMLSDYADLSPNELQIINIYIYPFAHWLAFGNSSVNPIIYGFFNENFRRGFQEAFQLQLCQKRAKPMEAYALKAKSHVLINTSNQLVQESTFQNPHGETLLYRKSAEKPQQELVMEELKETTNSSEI
# Experimental: as §1, §2
"IP accumulation, x-fold of basal (mean), NPFF1R ([1]; 0.1 µM peptide)","IP accumulation, x-fold of basal (mean), NPFF1R ([1]; 10 µM peptide)","IP accumulation, x-fold of basal (mean), Y1R ([2]; 0.1 µM peptide)","IP accumulation, x-fold of basal (mean), Y1R ([2]; 10 µM peptide)","IP accumulation, x-fold of basal (mean), QRFPR# ([3]; 0.1 µM peptide)","IP accumulation, x-fold of basal (mean), QRFPR# ([3]; 10 µM peptide)","IP accumulation, x-fold of basal (mean), Y2R ([4]; 0.1 µM peptide)","IP accumulation, x-fold of basal (mean), Y2R ([4]; 10 µM peptide)","IP accumulation, x-fold of basal (mean), NPFF2R ([5]; 0.1 µM peptide)","IP accumulation, x-fold of basal (mean), NPFF2R ([5]; 10 µM peptide)",Substance
–,–,–,–,0.91 x-fold of basal,0.80 x-fold of basal,–,–,–,–,"APLEGFEDMSGFLRTIDGIQKPRF-NH2 [FLP-33, NPY-like C. elegans FLP with C-terminal RxRF/Ya signature]"
–,–,–,–,0.87 x-fold of basal,0.95 x-fold of basal,–,–,–,–,"EASAFGDIIGELKGKGLGGRMRF-NH2 [FLP-27, NPY-like C. elegans FLP with C-terminal RxRF/Ya signature]"
1.04 x-fold of basal,2.56 x-fold of basal,1.32 x-fold of basal,2.75 x-fold of basal,22.77 x-fold of basal,24.26 x-fold of basal,1.30 x-fold of basal,10.62 x-fold of basal,1.85 x-fold of basal,2.58 x-fold of basal,"TSGPLGNLAEELNGYSRKKGGFSFRF-NH2 [QRFP26, human pyroglutamylated RFamide peptide, 26 residues, reference compound]"

# Second part, the substance before the results:
Substance,"IP accumulation, x-fold of basal (mean), NPFF1R ([1]; 0.1 µM peptide)","IP accumulation, x-fold of basal (mean), NPFF1R ([1]; 10 µM peptide)","IP accumulation, x-fold of basal (mean), Y1R ([2]; 0.1 µM peptide)","IP accumulation, x-fold of basal (mean), Y1R ([2]; 10 µM peptide)","IP accumulation, x-fold of basal (mean), QRFPR# ([3]; 0.1 µM peptide)","IP accumulation, x-fold of basal (mean), QRFPR# ([3]; 10 µM peptide)","IP accumulation, x-fold of basal (mean), Y2R ([4]; 0.1 µM peptide)","IP accumulation, x-fold of basal (mean), Y2R ([4]; 10 µM peptide)","IP accumulation, x-fold of basal (mean), NPFF2R ([5]; 0.1 µM peptide)","IP accumulation, x-fold of basal (mean), NPFF2R ([5]; 10 µM peptide)"
"AGSDPNFLRF-NH2 [FLP-1-2, C. elegans FMRFamide-like peptide, C-terminally amidated, synthesized by SPPS]",2.11 x-fold of basal,3.54 x-fold of basal,1.25 x-fold of basal,3.68 x-fold of basal,1.07 x-fold of basal,0.92 x-fold of basal,2.81 x-fold of basal,1.41 x-fold of basal,1.10 x-fold of basal,2.86 x-fold of basal
"APKPKFIRF-NH2 [FLP-5-1, C. elegans FMRFamide-like peptide, C-terminally amidated, synthesized by SPPS]",1.48 x-fold of basal,4.07 x-fold of basal,1.02 x-fold of basal,1.69 x-fold of basal,0.95 x-fold of basal,1.21 x-fold of basal,0.88 x-fold of basal,4.08 x-fold of basal,0.88 x-fold of basal,2.44 x-fold of basal
"APLEPVYPGDNATPEQMAQYAADLRRYINMLTRPRY-NH2 [PP, human pancreatic polypeptide, reference compound]",0.75 x-fold of basal,0.75 x-fold of basal,17.01 x-fold of basal,25.89 x-fold of basal,0.75 x-fold of basal,0.75 x-fold of basal,3.40 x-fold of basal,12.24 x-fold of basal,0.95 x-fold of basal,1.44 x-fold of basal
"ASPSFIRF-NH2 [FLP-4-2, C. elegans FMRFamide-like peptide, C-terminally amidated, synthesized by SPPS]",1.86 x-fold of basal,3.68 x-fold of basal,2.37 x-fold of basal,1.93 x-fold of basal,1.26 x-fold of basal,0.98 x-fold of basal,0.76 x-fold of basal,2.05 x-fold of basal,1.07 x-fold of basal,2.36 x-fold of basal
"NPENDTPFGTMRF-NH2 [FLP-3-4, C. elegans FMRFamide-like peptide, C-terminally amidated, synthesized by SPPS]",1.29 x-fold of basal,3.42 x-fold of basal,1.54 x-fold of basal,3.82 x-fold of basal,1.42 x-fold of basal,1.52 x-fold of basal,1.01 x-fold of basal,0.70 x-fold of basal,1.58 x-fold of basal,3.28 x-fold of basal
PrRP31 [reference compound],0.87 x-fold of basal,2.26 x-fold of basal,0.87 x-fold of basal,1.86 x-fold of basal,0.58 x-fold of basal,0.59 x-fold of basal,0.76 x-fold of basal,5.57 x-fold of basal,1.83 x-fold of basal,2.28 x-fold of basal
"TPDINPAWYASRGIRPVGRF-NH2 [PrRP20, human prolactin-releasing peptide, 20 residues, reference compound]",0.94 x-fold of basal,2.37 x-fold of basal,0.82 x-fold of basal,2.68 x-fold of basal,0.59 x-fold of basal,0.63 x-fold of basal,0.81 x-fold of basal,5.05 x-fold of basal,1.75 x-fold of basal,2.32 x-fold of basal
